ChEMBL document CHEMBL1201862, “PubChem BioAssay data set” (2004)
Active and inactive are the calls of the source.

Key:
[1] = inhibition of mouse IRAP aminopeptidase activity – biochemical, Leu-AMC fluorescence, cherry-picked samples, set 2, selectivity assay for ERAP1 modulator project, dose response (AID 743340)
[2] = disruptors of Keap1/Nrf2 protein interaction – biochemical, fluorescence polarization, dry powder, set 3, dose response (AID 651806)
[3] = kidney cell line viability loss – HEK293T, luminescence plate reader, powder samples, set 4, cytotoxicity control, dose response (AID 651863); type: functional, cell-based; settings: HEK293
[4] = system: HEK293; test: viability loss in HEK293T cells – cell-based, ATP luminescence, cherry-pick samples, cytotoxicity control, dose response (AID 687005); type: functional; settings: Homo sapiens;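 note: cells exposed to compound for 48 hours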
[5] = HEK293 Cytotoxicity Assay Measured in Cell-Based System Using Plate Reader - 7071-01_Inhibitor_Dose_CherryPick_Activity_Set2.; type: functional
[6] = system: HeLa; test: viability loss in HeLa cells – cell-based, ATP luminescence, cherry-pick samples, cytotoxicity control, dose response (AID 687004); type: functional; settings: Homo sapiens
[7] = biological target: Caspase-6 (Homo sapiens, UniProt P55212); test: inhibition of CASP6 peptide cleavage – biochemical, VEID-R110 fluorescence, cherry-pick, dose response (AID 720632)
Sequence of Caspase-6 (P55212 24-179 limits assumed): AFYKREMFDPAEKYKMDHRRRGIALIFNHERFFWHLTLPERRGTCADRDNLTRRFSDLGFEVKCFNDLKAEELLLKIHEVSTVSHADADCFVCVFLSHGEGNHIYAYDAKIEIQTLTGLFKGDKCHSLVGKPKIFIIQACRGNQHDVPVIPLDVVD
Sequence of Caspase-6 (P55212 194-293 limits assumed): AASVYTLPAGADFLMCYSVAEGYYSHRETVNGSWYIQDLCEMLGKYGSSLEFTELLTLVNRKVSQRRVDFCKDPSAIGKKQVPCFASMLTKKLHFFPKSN

[8] = system: Streptococcus sp. 'group A'; test: Streptococcus pyogenes SK(-)GAS viability under kanamycin – luminescence, BacTiterGlo, confirmation, counter-screen for streptokinase expression inhibitor project, dose response (AID 1900); type: functional, organism-based
[9] = biological target: T1, Streptokinase A (Streptococcus pyogenes serotype M1, UniProt P10520); test: viability-normalized secreted streptokinase activity reduction – plasminogen activation absorbance, OD405, dose response (AID 1914); type: functional, Streptococcus pyogenes M1 GAS;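 note: secreted streptokinase activity via plasminogen activation per viability signal from cell pellet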
T1 sequence (P10520 whole entry): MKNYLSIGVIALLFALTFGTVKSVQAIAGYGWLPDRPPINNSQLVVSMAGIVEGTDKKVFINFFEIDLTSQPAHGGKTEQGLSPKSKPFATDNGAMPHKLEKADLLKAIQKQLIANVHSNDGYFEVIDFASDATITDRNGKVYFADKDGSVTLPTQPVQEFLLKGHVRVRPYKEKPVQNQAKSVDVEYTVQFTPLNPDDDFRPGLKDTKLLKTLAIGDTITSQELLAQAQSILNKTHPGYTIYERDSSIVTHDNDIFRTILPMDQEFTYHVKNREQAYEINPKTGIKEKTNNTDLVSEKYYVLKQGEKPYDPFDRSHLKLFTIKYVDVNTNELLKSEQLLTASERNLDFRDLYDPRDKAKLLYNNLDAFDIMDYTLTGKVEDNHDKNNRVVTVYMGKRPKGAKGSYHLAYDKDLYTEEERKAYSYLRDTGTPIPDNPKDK

[10] = system: Streptococcus; test: GAS UMAA2166 growth inhibition – luminescence, BacTiterGlo, counter-screen for streptokinase expression inhibitor project, dose response (AID 1915); type: functional, organism-based;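 note: potency for reduction of bacterial viability or growth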
[11] = biological target: Potassium channel subfamily K member 9 (Homo sapiens, UniProt Q9NPC2); test: KCNK9 flux blockade, concentration-response – cell-based, FluxOR thallium flux, selectivity assay for TASK1 inhibitor project, SAR follow-up (AID 652211); type: functional;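 note: potency is for inhibitors of the channel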
Sequence of Potassium channel subfamily K member 9 (Q9NPC2 whole entry): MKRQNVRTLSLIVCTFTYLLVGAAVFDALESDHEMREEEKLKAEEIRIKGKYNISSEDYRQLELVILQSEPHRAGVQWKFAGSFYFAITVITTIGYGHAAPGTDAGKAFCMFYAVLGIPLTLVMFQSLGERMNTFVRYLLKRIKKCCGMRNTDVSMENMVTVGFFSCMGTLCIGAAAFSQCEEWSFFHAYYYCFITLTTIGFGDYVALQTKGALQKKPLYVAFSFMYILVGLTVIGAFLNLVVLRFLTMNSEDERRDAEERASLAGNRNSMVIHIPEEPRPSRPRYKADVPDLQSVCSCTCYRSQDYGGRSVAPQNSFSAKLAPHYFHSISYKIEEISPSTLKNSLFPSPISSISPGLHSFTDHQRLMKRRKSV

[12] = biological target: Potassium channel subfamily K member 3 (Homo sapiens, UniProt O14649); test: inhibition of human KCNK3 channel flux – CHO cells, FluxOR thallium flux, SAR follow-up (AID 652212); type: functional
Sequence of Potassium channel subfamily K member 3 (O14649 whole entry): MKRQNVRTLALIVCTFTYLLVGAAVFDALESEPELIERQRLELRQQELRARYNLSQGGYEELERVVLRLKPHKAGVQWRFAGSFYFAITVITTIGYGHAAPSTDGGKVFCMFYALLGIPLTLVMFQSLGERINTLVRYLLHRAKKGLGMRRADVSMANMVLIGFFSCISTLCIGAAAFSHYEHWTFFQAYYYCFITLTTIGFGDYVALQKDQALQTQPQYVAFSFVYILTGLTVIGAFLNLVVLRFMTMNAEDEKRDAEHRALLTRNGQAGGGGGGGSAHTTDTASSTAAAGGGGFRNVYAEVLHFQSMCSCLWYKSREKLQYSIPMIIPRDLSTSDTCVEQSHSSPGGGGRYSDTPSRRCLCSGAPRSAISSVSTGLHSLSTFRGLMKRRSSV

[13] = biological target: Voltage-gated inwardly rectifying potassium channel KCNH2 (Homo sapiens, UniProt Q12809); test: off-target hERG block by TASK1 inhibitor candidates – FluxOR thallium flux, concentration-response, CHO cells, selectivity assay for TASK1 inhibitor project, SAR follow-up (AID 652194); type: functional, cell-based
Sequence of Voltage-gated inwardly rectifying potassium channel KCNH2 (Q12809 whole entry): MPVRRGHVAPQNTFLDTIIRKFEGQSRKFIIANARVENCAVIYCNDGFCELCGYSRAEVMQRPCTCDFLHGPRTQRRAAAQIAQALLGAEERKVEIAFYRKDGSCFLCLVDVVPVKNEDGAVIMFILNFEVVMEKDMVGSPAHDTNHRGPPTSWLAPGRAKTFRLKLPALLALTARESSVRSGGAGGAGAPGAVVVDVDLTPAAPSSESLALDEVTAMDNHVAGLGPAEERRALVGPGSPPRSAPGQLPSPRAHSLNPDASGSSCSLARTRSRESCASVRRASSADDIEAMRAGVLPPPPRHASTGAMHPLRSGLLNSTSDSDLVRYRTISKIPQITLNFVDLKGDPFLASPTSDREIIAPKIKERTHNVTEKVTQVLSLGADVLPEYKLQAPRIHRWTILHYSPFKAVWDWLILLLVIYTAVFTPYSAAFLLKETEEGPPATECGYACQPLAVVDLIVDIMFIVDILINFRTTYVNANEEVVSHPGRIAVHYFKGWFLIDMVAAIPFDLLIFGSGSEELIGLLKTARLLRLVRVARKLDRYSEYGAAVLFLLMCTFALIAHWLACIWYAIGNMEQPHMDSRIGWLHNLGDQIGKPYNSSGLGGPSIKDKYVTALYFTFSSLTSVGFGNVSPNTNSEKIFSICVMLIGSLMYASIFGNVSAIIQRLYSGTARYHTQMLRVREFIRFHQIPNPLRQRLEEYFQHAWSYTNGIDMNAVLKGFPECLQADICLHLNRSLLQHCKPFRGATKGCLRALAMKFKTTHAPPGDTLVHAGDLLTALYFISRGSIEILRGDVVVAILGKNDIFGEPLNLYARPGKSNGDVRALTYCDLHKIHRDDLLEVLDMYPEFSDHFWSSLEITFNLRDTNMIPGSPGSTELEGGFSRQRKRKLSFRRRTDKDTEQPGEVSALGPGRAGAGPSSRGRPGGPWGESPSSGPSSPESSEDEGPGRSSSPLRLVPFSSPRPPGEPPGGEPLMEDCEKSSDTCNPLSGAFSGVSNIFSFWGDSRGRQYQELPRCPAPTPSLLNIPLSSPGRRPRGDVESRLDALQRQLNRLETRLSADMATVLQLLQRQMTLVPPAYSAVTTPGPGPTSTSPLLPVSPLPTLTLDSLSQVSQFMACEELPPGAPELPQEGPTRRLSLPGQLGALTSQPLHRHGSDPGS

[14] = Late stage counterscreen for inhibitors of Trypanosoma brucei methionyl tRNA synthetase (MetRS): Luminescence-based cell-based high throughput dose response assay to identify compounds that are cytotoxic to Jurkat human T lymphocyte cells.; type: functional
[15] = biological target: T2, Methionyl-tRNA synthetase, putative (Trypanosoma brucei brucei, UniProt Q38C91); type: functional, Trypanosoma brucei brucei strain 927/4 GUTat10.1
T2 sequence (Q38C91 whole entry): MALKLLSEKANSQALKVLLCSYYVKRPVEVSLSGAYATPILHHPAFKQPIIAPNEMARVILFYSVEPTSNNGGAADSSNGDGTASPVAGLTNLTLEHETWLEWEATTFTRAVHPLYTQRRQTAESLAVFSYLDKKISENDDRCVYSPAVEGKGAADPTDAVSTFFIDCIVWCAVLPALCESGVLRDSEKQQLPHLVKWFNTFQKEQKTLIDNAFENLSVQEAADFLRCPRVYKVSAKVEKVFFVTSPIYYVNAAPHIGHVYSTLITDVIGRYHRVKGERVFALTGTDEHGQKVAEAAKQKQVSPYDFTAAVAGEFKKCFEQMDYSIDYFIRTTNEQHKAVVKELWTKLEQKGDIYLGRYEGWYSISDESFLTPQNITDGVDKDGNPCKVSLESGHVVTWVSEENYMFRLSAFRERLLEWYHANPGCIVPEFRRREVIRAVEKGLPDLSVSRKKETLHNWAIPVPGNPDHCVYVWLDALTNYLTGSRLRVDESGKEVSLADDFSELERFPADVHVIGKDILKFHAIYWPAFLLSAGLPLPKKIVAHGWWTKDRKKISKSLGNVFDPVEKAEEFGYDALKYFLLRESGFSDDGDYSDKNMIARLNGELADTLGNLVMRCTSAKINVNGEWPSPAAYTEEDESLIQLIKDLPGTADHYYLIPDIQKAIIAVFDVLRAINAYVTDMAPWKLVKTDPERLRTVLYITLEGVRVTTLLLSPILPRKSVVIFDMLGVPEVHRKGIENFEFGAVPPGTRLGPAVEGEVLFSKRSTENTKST

[16] = Counterscreen for inhibitors of Trypanosoma brucei methionyl tRNA synthetase (MetRS): Luminescence-based cell-based high throughput dose response assay to identify compounds that are cytotoxic to Jurkat human T lymphocyte cells.; type: functional
[17] = biological target: T2, Methionyl-tRNA synthetase, putative; type: functional, Trypanosoma brucei brucei strain 927/4 GUTat10.1; remark: listed apart in the source
[18] = Luminescence Cell-Based Dose Confirmation HTS to Identify Activators of 5'UTR Stem-Loop Driven Alpha-Synuclein mRNA Translation in H4 Neuroglioblastoma Cells. [Related pubchem assays: 1829 (Project Summary), 1814 (Primary HTS)]; type: functional
[19] = cells; settings: HEK293
[20] = Luminescence Cell-Based Dose Response HTS to Identify Activators of Luciferase Translation or Activity in H4 […] Cells. [Related pubchem assays: 1829 (Project Summary), 1814 (Primary HTS)]; type: functional
[21] = cells
[22] = system: H4; test: Luminescence Cell-Based Dose Response HTS to Identify Activators of 5'UTR Stem-Loop Driven Prion Protein mRNA Translation in H4 Neuroglioblastoma Cells. [Related pubchem assays: 1829 (Project Summary), 1814 (Primary HTS)]; type: functional; settings: Homo sapiens
[23] = biological target: Metabotropic glutamate receptor 5 (Rattus norvegicus, UniProt P31424); test: Identification of a glycine sulfonamide based non-MPEP site positive allosteric potentiator (PAM) of mGlu5 (calcium_assay).; type: functional
Sequence of Metabotropic glutamate receptor 5 (P31424 whole entry, the tested form may be a part): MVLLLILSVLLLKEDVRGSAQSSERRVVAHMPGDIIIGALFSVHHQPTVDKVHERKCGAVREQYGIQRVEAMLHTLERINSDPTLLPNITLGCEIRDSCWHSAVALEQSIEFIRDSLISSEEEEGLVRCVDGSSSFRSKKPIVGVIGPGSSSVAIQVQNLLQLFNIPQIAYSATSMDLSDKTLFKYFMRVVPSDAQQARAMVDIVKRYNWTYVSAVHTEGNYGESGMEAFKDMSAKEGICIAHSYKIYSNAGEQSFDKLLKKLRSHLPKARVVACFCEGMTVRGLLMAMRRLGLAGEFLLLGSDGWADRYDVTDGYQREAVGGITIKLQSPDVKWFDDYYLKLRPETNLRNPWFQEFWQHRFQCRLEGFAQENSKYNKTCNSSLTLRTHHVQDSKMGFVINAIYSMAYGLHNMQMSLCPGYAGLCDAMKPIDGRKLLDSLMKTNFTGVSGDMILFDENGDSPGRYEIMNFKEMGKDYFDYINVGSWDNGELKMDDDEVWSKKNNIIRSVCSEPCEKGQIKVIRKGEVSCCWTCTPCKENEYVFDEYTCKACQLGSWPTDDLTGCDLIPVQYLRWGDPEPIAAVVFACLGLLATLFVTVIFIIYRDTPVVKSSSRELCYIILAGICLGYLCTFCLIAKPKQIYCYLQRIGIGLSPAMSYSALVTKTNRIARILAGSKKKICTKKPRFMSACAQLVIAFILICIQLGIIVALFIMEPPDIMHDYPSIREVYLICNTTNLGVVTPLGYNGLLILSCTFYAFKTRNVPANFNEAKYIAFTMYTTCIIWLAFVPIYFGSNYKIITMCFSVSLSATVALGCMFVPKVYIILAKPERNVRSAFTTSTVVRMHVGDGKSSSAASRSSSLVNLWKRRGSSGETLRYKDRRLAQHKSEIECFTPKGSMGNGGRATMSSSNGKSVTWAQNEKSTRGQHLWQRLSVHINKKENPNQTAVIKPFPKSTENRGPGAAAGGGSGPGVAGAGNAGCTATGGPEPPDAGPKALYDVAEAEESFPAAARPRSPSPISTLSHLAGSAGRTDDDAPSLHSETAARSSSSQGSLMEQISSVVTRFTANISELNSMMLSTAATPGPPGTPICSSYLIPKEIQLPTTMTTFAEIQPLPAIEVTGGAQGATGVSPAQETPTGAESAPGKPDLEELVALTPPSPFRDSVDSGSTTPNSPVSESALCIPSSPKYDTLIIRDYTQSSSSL

[24] = biological target: T3, Oxysterols receptor LXR-beta (Homo sapiens, UniProt P55055); type: functional, cell-based;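 note: Cell-based luminescence dose-response assay of agonist activity at LXR, run as a confirmatory counterscreen to a daf-12 agonist screen; HEK293 cells with Gal4-LXR fusion and GAL4-driven luciferase reporter; agonist potency from rising luciferase signal of a Gal4-LXR reporter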
T3 sequence (P55055 whole entry): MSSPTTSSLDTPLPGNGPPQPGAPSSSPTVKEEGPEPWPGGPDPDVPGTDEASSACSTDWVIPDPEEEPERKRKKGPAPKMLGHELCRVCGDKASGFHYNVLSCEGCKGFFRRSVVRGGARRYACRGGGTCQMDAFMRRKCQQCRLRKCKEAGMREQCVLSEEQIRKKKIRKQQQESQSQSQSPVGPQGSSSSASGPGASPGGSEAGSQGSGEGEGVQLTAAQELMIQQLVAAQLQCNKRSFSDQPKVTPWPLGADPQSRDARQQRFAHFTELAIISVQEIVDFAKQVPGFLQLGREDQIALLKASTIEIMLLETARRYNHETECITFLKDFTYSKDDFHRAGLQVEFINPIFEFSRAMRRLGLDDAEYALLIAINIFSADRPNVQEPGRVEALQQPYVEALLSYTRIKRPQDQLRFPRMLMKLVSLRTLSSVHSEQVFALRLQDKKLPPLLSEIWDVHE

[25] = cells; remark: listed apart in the source
[26] = biological target: T4, Corticotropin-releasing factor receptor 2/Corticotropin-releasing factor-binding protein (Homo sapiens, UniProt P24387+Q13324); test: activators of CRF receptor 2 with binding protein – uHTS hits, confirmation (AID 602473); type: functional; settings: read-out: EC50_Mean
T4 sequence (Q13324 whole entry): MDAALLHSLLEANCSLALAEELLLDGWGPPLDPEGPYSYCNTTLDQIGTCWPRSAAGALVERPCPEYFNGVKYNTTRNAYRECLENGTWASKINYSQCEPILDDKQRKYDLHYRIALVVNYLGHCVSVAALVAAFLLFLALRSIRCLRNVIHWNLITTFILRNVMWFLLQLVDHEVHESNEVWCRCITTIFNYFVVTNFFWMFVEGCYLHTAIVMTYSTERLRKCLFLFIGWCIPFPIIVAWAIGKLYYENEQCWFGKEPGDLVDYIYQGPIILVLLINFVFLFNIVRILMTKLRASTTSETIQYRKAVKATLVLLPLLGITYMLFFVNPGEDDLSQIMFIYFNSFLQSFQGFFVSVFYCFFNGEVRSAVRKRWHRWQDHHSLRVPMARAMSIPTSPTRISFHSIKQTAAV
T4 sequence (P24387 whole entry): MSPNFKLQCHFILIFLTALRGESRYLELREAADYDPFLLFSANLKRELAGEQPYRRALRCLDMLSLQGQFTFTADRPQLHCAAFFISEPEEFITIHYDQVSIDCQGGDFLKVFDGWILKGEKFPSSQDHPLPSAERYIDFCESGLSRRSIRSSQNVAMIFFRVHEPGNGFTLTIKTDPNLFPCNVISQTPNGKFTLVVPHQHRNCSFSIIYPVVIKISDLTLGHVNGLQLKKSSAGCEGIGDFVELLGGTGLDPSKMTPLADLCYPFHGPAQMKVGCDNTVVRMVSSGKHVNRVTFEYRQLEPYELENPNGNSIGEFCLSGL

[27] = system: Vero; test: cells; type: functional, cell-based; settings: Chlorocebus sabaeus
[28] = HGIII-sPLA2 enzyme inhibition potency – biochemical, QFRET, IC50, dose response (AID 743457);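 note: green fluorescence rise as the enzyme cleaves BODIPY PC-A2 in liposomes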
[29] = system: Vero; test: cells; type: functional; settings: Chlorocebus sabaeus
[30] = biological target: T5, High affinity choline transporter 1 (Homo sapiens, UniProt Q9GZV3); test: inhibition of SLC5A7-mediated choline transport – cell-based, HEK-293 hCHT, [3H]-choline uptake, dose response (AID 652177); type: functional
T5 sequence (Q9GZV3 whole entry): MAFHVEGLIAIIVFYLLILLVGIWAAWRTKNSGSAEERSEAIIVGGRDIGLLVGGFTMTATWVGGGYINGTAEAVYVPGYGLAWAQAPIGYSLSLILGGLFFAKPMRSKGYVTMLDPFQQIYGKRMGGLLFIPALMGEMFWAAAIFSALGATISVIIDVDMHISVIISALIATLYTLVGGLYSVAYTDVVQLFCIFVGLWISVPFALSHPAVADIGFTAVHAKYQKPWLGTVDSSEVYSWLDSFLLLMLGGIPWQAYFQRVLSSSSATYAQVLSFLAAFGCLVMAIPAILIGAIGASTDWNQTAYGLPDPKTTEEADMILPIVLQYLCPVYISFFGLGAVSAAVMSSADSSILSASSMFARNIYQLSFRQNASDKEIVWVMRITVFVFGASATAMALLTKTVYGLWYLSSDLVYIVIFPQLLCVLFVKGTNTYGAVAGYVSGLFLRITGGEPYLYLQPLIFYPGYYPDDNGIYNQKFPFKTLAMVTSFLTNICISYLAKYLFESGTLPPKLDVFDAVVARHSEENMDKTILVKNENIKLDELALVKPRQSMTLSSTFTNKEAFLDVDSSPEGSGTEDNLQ

[31] = biological target: Nuclear receptor subfamily 5 group A member 2 (Homo sapiens, UniProt O00482); type: functional, cell-based;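 note: HEK293T cells transfected with LRH-1 and a StAR promoter luciferase reporter; potency for inhibitors that lower LRH-1 driven reporter light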
Sequence of Nuclear receptor subfamily 5 group A member 2 (O00482 whole entry): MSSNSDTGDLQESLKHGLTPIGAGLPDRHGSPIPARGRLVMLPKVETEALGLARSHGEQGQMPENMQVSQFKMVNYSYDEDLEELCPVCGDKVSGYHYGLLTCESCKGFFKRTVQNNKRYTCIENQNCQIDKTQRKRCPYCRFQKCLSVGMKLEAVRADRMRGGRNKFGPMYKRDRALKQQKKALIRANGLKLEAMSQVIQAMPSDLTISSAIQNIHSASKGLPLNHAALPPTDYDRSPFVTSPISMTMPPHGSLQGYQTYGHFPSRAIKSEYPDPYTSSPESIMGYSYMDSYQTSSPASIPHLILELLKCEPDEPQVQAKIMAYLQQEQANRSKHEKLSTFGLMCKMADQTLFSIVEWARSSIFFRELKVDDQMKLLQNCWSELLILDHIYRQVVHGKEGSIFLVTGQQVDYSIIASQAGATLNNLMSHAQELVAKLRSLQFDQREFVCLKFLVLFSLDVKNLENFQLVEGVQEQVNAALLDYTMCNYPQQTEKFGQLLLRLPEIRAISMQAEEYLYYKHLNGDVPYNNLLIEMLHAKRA

[32] = nonselective StAR promoter luciferase inhibitors – cell-based, luminescence, luciferase reporter, counter-screen for LRH-1 inverse agonist project, dose response (AID 651969); type: functional
[33] = dual-tagged ARNT PAS-B bead signal quenchers – biochemical, dry powder, artefact control for ARNT/TACC3 disruptor project, dose response (AID 720564)
[34] = biological target: Steroidogenic factor 1 (Homo sapiens, UniProt Q13285); test: Counterscreen for inverse agonists of the liver receptor homolog-1 (LRH-1; NR5A2): Luminescence-based cell-based high throughput dose response assay to identify inverse agonists of the Steroidogenic Factor 1 Nuclear Receptor (SF1; NR5A1).; type: functional
[35] = HeLa cell viability loss – plate reader, dry powder, cytotoxicity control, dose response (AID 651946); type: functional, cell-based

Compound: Cc1noc(C)c1S(=O)(=O)Nc1ccc2c(c1)C(=O)N([C@H](C)CO)C[C@H](C)[C@H](CN(C)Cc1ccc3c(c1)OCO3)OCCCC[C@@H](C)O2
- AC50 [1]: 15.7 µM (active)

Compound: O=C(O)C1CCCCC1C(=O)N1CCc2ccccc2C1CN1Cc2ccccc2C1=O (stereo not drawn)
- AC50 [2]: 91.2 µM (active)
- AC50 [3]: 39.1 µM (active)

Compound: C[C@@H]1CN([C@@H](C)CO)S(=O)(=O)c2ccc(C#CC3CC3)cc2O[C@H]1CN(C)CC1CCOCC1
- AC50 [4]: 31.7 µM (active)
- AC50 [5]: 31.7 µM (active)
- AC50 [6]: > 52 µM (inactive)

Compound: Oc1ccc(Cl)cc1CNc1cccc2cccnc12
- AC50 [7]: 48.4 µM (active)
- EC50 [8]: 23.9 µM (active)
- EC50 [9]: > 150 µM (not active)
- EC50 [10]: > 150 µM (not active)

Compound: CCOc1ccccc1NC(=O)c1cccc(NC(=O)c2cccc(C)c2)c1
- IC50 [11]: 0.29 µM (active)
- IC50 [12]: 0.017 µM (active)

Compound: Cc1cccc(C(=O)Nc2cccc(NC(=O)c3ccc(C(C)(C)C)cc3)c2)c1
- IC50 [13]: 32.8 µM (active)
- IC50 [12]: 0.184 µM (active)

Compound: COc1ccccc1NS(=O)(=O)c1cccc(NC(=O)Nc2ccccc2)c1
- IC50 [14]: 64.2 µM (inactive)
- IC50 [15]: 1.27 µM (active)
- IC50 [16]: 48.8 µM (inactive)
- IC50 [17]: 0.644 µM (active)

Compound: CC1CCN(S(=O)(=O)N2CCC(C(=O)NC3CCCC3)CC2)CC1
- EC50 [18]: > 120 µM (not active)
- AC50 [19]: > 52 µM (inactive)
- EC50 [20]: > 120 µM (not active)
- AC50 [21]: > 70 µM (inactive)
- EC50 [22]: > 120 µM (not active)

Compound: CS(=O)(=O)N(CC(=O)N1CCc2ccccc21)c1ccccc1Cl
- EC50 [23]: 10 µM (inconclusive)

Compound: Cc1csc(SCC(=O)Nc2sccc2C#N)n1
- EC50 [24]: > 67.6 µM (inactive)
- EC50 [25]: > 67.6 µM (inactive)

Compound: Cc1ccc(C(=O)NNC(=S)NC(=O)c2ccco2)cc1
- EC50 [26]: 7.87 µM (active)
- EC50 [8]: 1.87 µM (active)
- IC50 [27]: 23.6 µM (active)
- IC50 [28]: > 122 µM (inactive)
- EC50 [10]: 8.89 µM (active)
- CC50 [29]: > 25 µM (active)

Compound: CCn1nc(C)c(CNC(=O)c2ccc(OC)c(OC3CCN(C(C)C)CC3)c2)c1C
- IC50 [30]: 1.75 µM (active)

Compound: COC(=O)c1ccc(NC(=O)CSc2ccc(-c3ccccn3)nn2)cc1
- IC50 [31]: 35.9 µM (inactive)
- IC50 [32]: 35.9 µM (inactive)
- AC50 [33]: 115 µM (active)
- IC50 [34]: 35.9 µM (inactive)

Compound: FC(F)(F)Oc1ccccc1-c1nnc(SCc2ccccc2)o1
- AC50 [35]: > 52 µM (inactive)
